Data taken from article PMC6135396, “Repurposing antimalarial aminoquinolines and related compounds for treatment of retinal neovascularization” (PLoS ONE, 2018).
Like-named read-outs stand apart in the source and are kept apart here.

How the values were obtained:
[1] = biological target: T1, APJ (Homo sapiens, UniProt P35414); experiment: APJ β-arrestin recruitment assay (PathHunter, CHO-K1-APJ); format: cell-based; design: β-galactosidase enzyme fragment (enzyme fragment complementation construct); host or cells: CHO-K1 (CHO-K1-APJ, PathHunter)
T1 sequence (P35414 1-380): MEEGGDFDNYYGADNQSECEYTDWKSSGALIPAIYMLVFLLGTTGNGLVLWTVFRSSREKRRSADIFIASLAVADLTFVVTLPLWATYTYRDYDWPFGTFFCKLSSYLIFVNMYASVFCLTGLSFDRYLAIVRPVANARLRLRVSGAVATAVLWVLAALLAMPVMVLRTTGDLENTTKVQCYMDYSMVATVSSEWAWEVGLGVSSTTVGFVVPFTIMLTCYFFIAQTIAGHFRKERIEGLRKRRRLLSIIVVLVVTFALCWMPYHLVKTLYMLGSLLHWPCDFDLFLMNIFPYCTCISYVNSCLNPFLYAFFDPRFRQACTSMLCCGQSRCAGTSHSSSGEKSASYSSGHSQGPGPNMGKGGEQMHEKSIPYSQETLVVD
Description: PathHunter™ GPCR Arrestin and cAMP Hunter™ cell lines (DiscoveRx Corp., Fremont, CA) were used to assay G-protein-dependent signaling and β-arrestin recruitment to APJ. CHO-K1 cells stably expressing APJ (CHO-K1-APJ) or AT1 (CHO-K1-AT1) with β-arrestin/β-galactosidase enzyme fragment complementation constructs were maintained in HAM's F-12 medium (Hyclone, Logan, UT) supplemented with 10% FBS, 1X Penicillin-Streptomycin-Glutamine (Invitrogen; Carlsbad, CA), 300 μg/ml hygromycin (EMD Biosciences, San Diego, CA), and 800 μg/ml Geneticin (Cellgro, Manassas, VA). Primary Human Retinal Microvascular Endothelial Cells (HRECs) were purchased from Cell Systems (Kirkland, WA) and maintained in Complete Classic Medium with CultureBoost-R™ (Cell Systems). Parent CHO-K1 cells were obtained from ATCC and maintained in HAM’s F-12 medium supplemented with 10% FBS, and1X Penicillin-Streptomycin-Glutamine (Invitrogen; Carlsbad, CA). All cells were incubated at 37°C (5% CO2, 95% relative humidity) and maintained at less than 70% to 80% confluence (approximately 75,000 cells/cm^2). Cell heterologously expressing APJ or AT1 were not used after 10 passages. HRECs were not used in any experiments after five passages.
CHO-K1 cells engineered to over-express APJ or AT1, and β-arrestin were removed from flasks using TrypLE Select (1X), no phenol red (Life Technologies, Grand Island, NY), centrifuged, and resuspended in CP2 Reagent (DiscoveRx, Fremont, CA). Cells were counted using a Countess Automated Cell Counter (Invitrogen, Carlsbad, CA) and 5,000 cells/well were plated in a 384-well tissue culture treated microplate (Corning, Corning, NY). All plates were incubated overnight at 37°C, 5% CO2 in a final volume of 25 μl/well. Following incubation, 5 μl of peptides (10-point concentrations) and controls prepared in ligand buffer (1X HBSS, 10 mM HEPES, 0.1% BSA) were added to cells and incubated at 37°C for 1.5 h. Using a Multidrop Combi Reagent Dispenser (Thermo Scientific), 12 μl of Detection Reagent (DiscoveRx) comprised of substrate and co-factors was added to all wells and incubated at room temperature in the dark for 1 h. Chemiluminescent signal was detected on an EnVision Multi-label plate reader (Perkin Elmer) using a counting time of 1 s/well. The robustness of data from each screening plate and run was monitored by Z’ and Signal Window calculation.

[2] = Plasma stability, human; format: in vitro ADME
[3] = Hepatic microsome stability, rat; format: in vitro ADME; details: liver microsomes, pH 7.4, single phase, read-out: Hepatic microsome stability T1/2
Description: Hepatic microsomes stability assays were performed as reported before. […] After preincubation at 37°C for 10 min, enzyme reactions were initiated by adding 120 μL of NADPH-generating system (2 mM NADP^+, 10 mM glucose-6-phosphate, 0.4 U/ml glucose-6-phosphate dehydrogenase, and 5 mM MgCl2) in the presence of 100 mM potassium phosphate buffer (pH 7.4). The final concentration of each model compound used was 1 μM. The microsomal concentrations used were 1.0 mg/mL. Compounds were incubated in microsomes for 0, 5, 15, 30 and 60 min. The reactions were stopped by the addition of ice cold ACN and the reaction mixtures were centrifuged at 10,000g for 10 min before the supernatant was removed for analysis.
Except for the primary assay in the HTS campaign, all experiments were repeated at least three times. Results are expressed as mean ± SEM. The Mann-Whitney test was used to determine statistical significance of the densitometry data of Western blot analysis. Unpaired two-tailed Student’s t-test was performed for the significance of the results of ELISA and in vitro tubule formation assay. ANOVA was used to determine the significance in vivo CNV models using the Tukey post-hoc test for multiple comparisons. […] T1/2 was calculated using the best fit curve resulting from non-linear (human) or linear (mouse and rat) regression analyses using Prism 7.

[4] = Cytotoxicity, ATP-Lite, Fa2N-4 immortalized human hepatocytes; format: cell-based; details: Fa2N-4 immortalized human hepatocytes
Description: Fa2N-4 immortalized human hepatocytes (Xenotech) or HREC cells were grown to subconfluency in wells of a 96-well plate and exposed to different concentrations of compounds for 24 h after which the cells were washed and the media and compounds replaced. The cells were returned to the incubator for another 24 h. The extent of cell death (cell lysis) was determined by ATP-Lite reagent (Perkin-Elmer).

[5] = Plasma-protein binding, human; format: in vitro ADME
[6] = Tissue distribution in the mouse eye after intravitreal injection; format: in vivo; details: 7 d after IVT administration
Description: Mice were assigned to groups (n = 6/group) that received either 50 μg compound, or vehicle via intravitreal injection (1 μl volume). One day after injection, ½ of the mice (n = 3 / group) mice were euthanized. The eyes were enucleated and the vitreous humor, retina, and RPE/Choroid/sclera were isolated and snap frozen in liquid N2. The remaining mice in each treatment group (n = 3 / group) were euthanized and the same tissues collected. The quantity of compound in the tissues (n = 6 eyes / treatment group) was measured using LC-MS/MS.

[7] = PAMPA permeability; format: in vitro ADME

In the case of CCN(CC)Cc1cc(Nc2ccnc3cc(Cl)ccc23)ccc1O [AQ, amodiaquine], the “Antagonism of Ap13-mediated recruitment of β-arrestin” value [1] is reported as “neither AQ nor 1, 3, 4, 5, or 6 antagonized”, the IC50 ([1]; secondary assay, Ap13-mediated β-arrestin recruitment) is reported as > 99 µM and the Plasma stability [2] is reported as 37.3 % remaining at 3 hrs. For the same compound, the half-life at 1 μM [3] was 38.9 min, the IC50 at 48 h ([4]; ATP-lite assay, Fa2-N4 cells) was > 50 µM and the CC50 at 48 h ([4]; Fa2N-4 cells, read-out: Cytotoxicity LC50) was > 50 µM. The Plasma-protein binding ([5]; 1 μM) was 88.2 % bound, the Plasma-protein binding ([5]; 10 μM) was 83.8 % bound and the “AQ level in plasma” value [6] was “No detectable levels”. For the same compound, the Papp ([7]; Donor pH 5.0, Acceptor pH 7.4, read-out: PAMPA permeability Pe) was 30 nm/s, the Papp ([7]; Donor pH 6.2, Acceptor pH 7.4, read-out: PAMPA permeability Pe) was 96 nm/s and the Papp ([7]; pH 7.4, Donor pH 7.4, Acceptor pH 7.4, read-out: PAMPA permeability Pe) was 540 nm/s.
